Where two headings read alike, the source gives them in different places.
Legend:
ovariectomized rats = details: cited from earlier work
Ishikawa cells = experiment: Ishikawa Cell Alkaline Phosphatase Assay; assay type: cell-based; details: Homo sapiens, reference compounds, estrogenic activity, 48 h treatment, 95% C.I. given in parentheses, read-out: ED50 values (95% C.I.), alkaline phosphatase activity
Description: Ishikawa Cell Alkaline Phosphatase Assay
Cell maintenance and treatment:
Ishikawa cells are maintained in DMEM/F12 (50%:50%) containing phenol red+10% fetal bovine serum. The medium also is supplemented with 2 mM Glutamax, 1% Pen/Strep and 1 mM sodium pyruvate. Five days prior to the beginning of an experiment (treatment of cells) the medium is changed to phenol red-free DMEM/F12+10% dextran coated charcoal stripped serum. On the day before treatment, cells are harvested using 0.5% trypsin/EDTA and plated at a density of 5×10^4 cells/well in 96-well tissue culture plates. […] Cells are treated for 48 hours prior to assay. […] Sample size for each compound dose is n=8.
Alkaline Phosphatase assay:
At the end of 48 hours the media is aspirated and cells are washed three times with phosphate buffered saline (PBS). 50 μl of lysis buffer (0.1M Tris-HCl, pH 9.8, 0.2% Triton X-100) is added to each well. Plates are placed at -80° C. for minimally 15 minutes. Plates are rapidly thawed at 37° C. followed by the addition of 150 μl of 0.1M Tris-HCl, pH 9.8, containing 4 mM para-nitrophenylphosphate to each well (final concentration is 3 mM pNPP).
Absorbance and slope calculations are done using the KineticCalc Application program (Bio-Tek Instruments, Inc., Winooski, Vt.). Results are expressed as the mean ±S.D. of the rate of enzyme reaction (slope) averaged over the linear portion of the kinetic reaction curve (optical density readings every 5 minutes for 30 minutes absorbance reading).

estrogen receptor = biological target: T1, estrogen receptor (Homo sapiens, UniProt P03372); experiment: Estrogen Receptor Binding/Competition Assay ([3H]17β-estradiol displacement, CHO cytosol)
T1 sequence (P03372 1-595): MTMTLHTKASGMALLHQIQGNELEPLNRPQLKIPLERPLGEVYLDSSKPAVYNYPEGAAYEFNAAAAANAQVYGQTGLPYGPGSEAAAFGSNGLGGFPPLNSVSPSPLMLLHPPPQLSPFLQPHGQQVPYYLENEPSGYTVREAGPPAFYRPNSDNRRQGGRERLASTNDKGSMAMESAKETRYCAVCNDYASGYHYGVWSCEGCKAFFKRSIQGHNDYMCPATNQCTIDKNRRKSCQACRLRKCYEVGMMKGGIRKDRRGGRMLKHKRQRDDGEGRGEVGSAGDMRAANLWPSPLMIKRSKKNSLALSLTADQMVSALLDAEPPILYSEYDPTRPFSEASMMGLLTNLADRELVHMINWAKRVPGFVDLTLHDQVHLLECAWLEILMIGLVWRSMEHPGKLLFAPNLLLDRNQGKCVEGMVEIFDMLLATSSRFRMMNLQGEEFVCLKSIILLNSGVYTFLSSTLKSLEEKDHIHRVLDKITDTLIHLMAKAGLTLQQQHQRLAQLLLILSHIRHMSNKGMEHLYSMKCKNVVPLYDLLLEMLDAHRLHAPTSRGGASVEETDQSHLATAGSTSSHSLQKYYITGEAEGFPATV

[1] = background statement, cited from earlier work
[2] = ovariectomized rats, Black et al. 1994

**Q.** For O=C(c1ccc(OCCN2CCCCC2)cc1)c1c(-c2ccc(O)cc2)sc2cc(O)ccc12 [raloxifene], which “effect on bone loss” value (ovariectomized rats; [2]) is on record?
**A.** prevents bone loss

**Q.** And the “effect on serum cholesterol” value (ovariectomized rats; [2])?
**A.** reduces serum cholesterol

**Q.** And the uterine hypertrophy (ovariectomized rats; [2])?
**A.** without causing uterine hypertrophy

**Q.** And the “effect on bone loss” value (ovariectomized rats; species not given)?
**A.** reduce bone loss

**Q.** What about the uterine hypertrophy (ovariectomized rats; species not given) of the same molecule?
**A.** without causing uterine hypertrophy

**Q.** With C[C@]12CC[C@@H]3c4ccc(O)cc4CC[C@H]3[C@@H]1CCC2=O [estrone] as the molecule, how does the EC50 (Ishikawa cells) read?
**A.** 0.36 nM

**Q.** With O=C(c1ccc(/C=C/C(=O)N2CCCCC2)cc1)c1c(-c2ccc(O)cc2)sc2cc(O)ccc12 [Example 7, (E)-3-{4-[6-Hydroxy-2-(4-hydroxyphenyl)benzo[b]thiophene-3-carbonyl]phenyl}-1-(piperidinyl)prop-en-1-one] as the molecule, how does the IC50 (estrogen receptor) read?
**A.** 70 nM

**Q.** With C[C@]12CC[C@@H]3c4ccc(O)cc4CC[C@H]3[C@@H]1CC[C@H]2O [17α-estradiol] as the molecule, how does the EC50 (Ishikawa cells) read?
**A.** 1.42 nM

**Q.** With O=C(c1ccc(/C=C/C(=O)N2CCOCC2)cc1)c1c(-c2ccc(O)cc2)sc2cc(O)ccc12 [Example 6, (E)-3-{4-[6-Hydroxy-2-(4 hydroxyphenyl)benzo[b]thiophene-3-carbonyl]-phenyl}-1-(morpholin-4-yl)prop-2-en-1-one] as the molecule, how does the IC50 (estrogen receptor) read?
**A.** 170 nM

**Q.** Which EC50 (Ishikawa cells) does the source give for C[C@]12CC[C@@H]3c4ccc(O)cc4CC[C@H]3[C@@H]1CC[C@@H]2O [17β-estradiol] here?
**A.** 0.03 nM

**Q.** Which IC50 (estrogen receptor) does the source give for CN(C)C(=O)/C=C/c1ccc(C(=O)c2c(-c3ccc(O)cc3)sc3cc(O)ccc23)cc1 [Example 3, (E)-3-{4-[6-Hydroxy-2-(4-hydroxyphenyl)benzo[b]thiophene-3-carbonyl]phenyl}-N,N-dimethylacrylamide] here?
**A.** 150 nM

**Q.** Which IC50 (estrogen receptor) does the source give for CCN(CC)C(=O)/C=C/c1ccc(C(=O)c2c(-c3ccc(O)cc3)sc3cc(O)ccc23)cc1 [Example 5, (E)-N,N-Diethyl-3-{4-[6-hydroxy-2-(4-hydroxyphenyl)benzo[b]thiophene-3-carbonyl]phenyl}acrylamide] here?
**A.** 100 nM

**Q.** With CC(C)(C)NC(=O)/C=C/c1ccc(C(=O)c2c(-c3ccc(O)cc3)sc3cc(O)ccc23)cc1 [Example 4, (E)-N-t-Butyl-3-{4-[6-hydroxy-2-(4-hydroxyphenyl)benzo[b]thiophene-3-carbonyl]phenyl}acrylamide] as the molecule, how does the IC50 (estrogen receptor) read?
**A.** 100 nM

**Q.** For C[C@]12CC[C@@H]3c4ccc(O)cc4CC[C@H]3[C@@H]1C[C@@H](O)[C@@H]2O [estriol], which EC50 (Ishikawa cells) is on record?
**A.** 0.13 nM

**Q.** Which bone growth quality [1] does the source give for [F-].[Na+] [sodium fluoride] here?
**A.** the bone growth is irregular

**Q.** What about the fracture incidence [1] of the same molecule?
**A.** fracture incidence does not appear to be significantly lowered

**Q.** And the side-effects [1]?
**A.** significant side-effects

**Q.** And the bone density increase ([1]; up to the value)?
**A.** 8-10 % a year

Source: US5827876A, “Inhibition of bone loss by 3-(4-acrylamidobenzoyl) benzo[b]-thiophenes” (priority 1997, dated 1998)
